Among the data in patent US10550110B2, “Tetrahydroquinoline sulfonamide derivatives as inverse agonists of retinoid-related orphan receptor gamma (ROR gamma (t))” (GALDERMA RESEARCH & DEVELOPMENT, priority 2014, dated 2020) are IC50 values, retold here.

Some results are limits rather than exact numbers.

The experiment concerns the target T1, ROR gamma ligand-binding domain (LBD) (hRORg) (Homo sapiens, UniProt P51449).
T1 construct: expressed in transfected cells; host or cells: HG5LN (HeLa line with GAL4-responsive luciferase reporter)
T1 sequence (P51449 269-508 limits assumed): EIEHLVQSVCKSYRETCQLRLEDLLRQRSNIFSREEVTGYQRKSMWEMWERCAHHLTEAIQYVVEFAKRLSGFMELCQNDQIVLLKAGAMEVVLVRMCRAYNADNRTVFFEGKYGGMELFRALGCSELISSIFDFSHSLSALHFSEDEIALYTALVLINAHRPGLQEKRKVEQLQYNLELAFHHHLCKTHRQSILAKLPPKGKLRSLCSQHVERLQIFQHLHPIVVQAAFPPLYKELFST
As to the kind of experiment: GAL4-RORγ transactivation (luciferase reporter, HG5LN HeLa line). Type of experiment: cell-based. As to conditions: HG5LN HeLa line with GAL4 DBD fused to ROR gamma LBD, 18 hours incubation. The text has this:
GAL4—RORγ Transactivation
The RORγ transactivation model was developed from the line HG5LN, which is a HeLa line that stably expresses a luciferase reporter gene controlled by a pentamer of the GAL4 recognition domain of yeast and of a β-globin promoter. The HG5LN line was stably transfected by the DNA-binding domain (DBD) of GAL4 fused to the ROR gamma ligand-binding domain (LBD). Molecules that inhibit the ROR gamma constitutive activity reduce the luciferase expression, thus leading to a reduction in the emitted luminescence.
The cells are seeded in 384-well plates (5000 cells in 45 μL/well of culture medium containing 10% fetal calf serum) and incubated for 4 hours at 37° C., 5% CO2. 5 μL of the test molecules (compounds described in the tables described above) are then added to each well and the plates are incubated for 18 hours at a temperature of 37° C. under 5% of CO2. 20 μL of luciferase substrate (Promega) are added to each well and the luminescence emitted is read by a microplate reader.
The luminescence units (“RLU”) are normalized by positive controls (“POS” containing a saturated concentration of N-(2,2,2-trifluoroethyl)-N-[4-[2,2,2-trifluoro-1-hydroxy-1-(trifluoromethyl)ethyl]phenyl])benzenesulfonamide and negative controls (“NEG” containing DMSO): % inhibition=((RLU-NEG)*100)/(POS-NEG). The IC50 values are calculated from a 4-parameter logistic model using the XLFit software (IDBS).
As usually defined, the IC50 is the point on the concentration scale where inhibition reaches its midpoint. Read a high IC50 as a need for much substance. In the case of `CCc1ccc(N(CC(C)C)S(=O)(=O)c2ccc3c(c2)C(O)CCN3Cc2cnoc2C)cc1` (centres unmarked) [Compound 30, 4-hydroxy-1-(5-methylisoxazol-4-ylmethyl)-1,2,3,4-tetrahydroquinoline-6-sulfonic acid (4-ethylphenyl)isobutylamide], the half-inhibitory concentration (IC50) fell in the range of 0.1 to 1 µM.
Compound `CCc1ccc(N(CC(C)C)S(=O)(=O)c2ccc3c(c2)C(O)CCN3Cc2c(C)noc2C)cc1` (centres unmarked) [Compound 31, 1-(3,5-dimethylisoxazol-4-ylmethyl)-4-hydroxy-1,2,3,4-tetrahydroquinoline-6-sulfonic acid (4-ethylphenyl)isobutylamide] gave a concentration for half-maximal inhibition (IC50) of 0.1 to 1 µM.
Take `CCc1ccc(N(CC(C)C)S(=O)(=O)c2ccc3c(c2)C(O)CCN3Cc2nonc2C)cc1` (centres unmarked) [Compound 32, 4-hydroxy-1-(4-methylfurazan-3-ylmethyl)-1,2,3,4-tetrahydroquinoline-6-sulfonic acid (4-ethylphenyl)isobutylamide]: the half-inhibitory concentration (IC50) was in the range of 0.1 to 1 µM.
Regarding `CCc1ccc(N(CC(C)C)S(=O)(=O)c2ccc3c(c2)C(O)CCN3CC2CCC(F)(F)CC2)cc1` (centres unmarked) [Compound 33, 1-(4,4-difluorocyclohexylmethyl)-4-hydroxy-1,2,3,4-tetrahydroquinoline-6-sulfonic acid (4-ethylphenyl)isobutylamide], the IC50 was above 1 µM.
Take `CCc1ccc(N(CC(C)C)S(=O)(=O)c2ccc3c(c2)C(O)CCN3CC2CCC(F)(F)C2)cc1` (centres unmarked) [Compound 34, 1-(3,3-difluorocyclopentylmethyl)-4-hydroxy-1,2,3,4-tetrahydroquinoline-6-sulfonic acid (4-ethylphenyl)isobutylamide]: the IC50 was 0.1 to 1 µM.
As for `CCc1ccc(N(CC(C)C)S(=O)(=O)c2ccc3c(c2)C(O)CCN3CC2CCC(C#N)CC2)cc1` (centres unmarked) [Compound 35, 1-(4-cyanocyclohexylmethyl)-4-hydroxy-1,2,3,4-tetrahydroquinoline-6-sulfonic acid (4-ethylphenyl)isobutylamide], the IC50 is above 1 µM.
Regarding `CCc1ccc(N(CC(C)C)S(=O)(=O)c2ccc3c(c2)C(O)CCN3OC2CCOCC2)cc1` (centres unmarked) [Compound 36, 4-hydroxy-1-(tetrahydropyran-4-yloxy)-1,2,3,4-tetrahydroquinoline-6-sulfonic acid (4-ethylphenyl)isobutylamide], the IC50 was 0.1 to 1 µM.
As to `CCc1ccc(N(CC(C)C)S(=O)(=O)c2ccc3c(c2)C(O)CCN3[C@H](C)C2CCOCC2)cc1` (stereo partly drawn) [Compound 38, 4-hydroxy-1-[(R)-1-(tetrahydropyran-4-yl)ethyl]-1,2,3,4-tetrahydroquinoline-6-sulfonic acid (4-ethylphenyl)isobutylamide], the half-inhibitory concentration (IC50) is above 1 µM.
To `CCc1ccc(N(CC(C)C)S(=O)(=O)c2ccc3c(c2)C(O)CCN3[C@H](C)C2CCOCC2)cc1` (stereo partly drawn) [Compound 39, 4-hydroxy-1-[(R)-1-(tetrahydropyran-4-yl)ethyl]-1,2,3,4-tetrahydroquinoline-6-sulfonic acid (4-ethylphenyl)isobutylamide] belongs above 1 µM; to `CCc1ccc(N(CC(C)C)S(=O)(=O)c2ccc3c(c2)C(O)CCN3[C@@H](C)C2CCOCC2)cc1` (stereo partly drawn) [Compound 40, 4-hydroxy-1-[(S)-1-(tetrahydropyran-4-yl)ethyl]-1,2,3,4-tetrahydroquinoline-6-sulfonic acid (4-ethylphenyl)isobutylamide], 0.1 to 1 µM.
In turn, `CCc1ccc(N(CC(C)C)S(=O)(=O)c2ccc3c(c2)C(O)CCN3[C@@H](C)C2CCOCC2)cc1` (stereo partly drawn) [Compound 41, 4-hydroxy-1-[(S)-1-(tetrahydropyran-4-yl)ethyl]-1,2,3,4-tetrahydroquinoline-6-sulfonic acid (4-ethylphenyl)isobutylamide] gave an IC50 of 0.1 to 1 µM.
The same measure for `CCc1ccc(N(CC(C)C)S(=O)(=O)c2ccc3c(c2)C(O)CCN3CC2CC3(COC3)C2)cc1` (centres unmarked) [Compound 44, 4-hydroxy-1-(2-oxaspiro[3.3]hept-6-ylmethyl)-1,2,3,4-tetrahydroquinoline-6-sulfonic acid (4-ethylphenyl)isobutylamide]: 0.1 to 1 µM; for `CCc1ccc(N(CC(C)C)S(=O)(=O)c2ccc3c(c2)C(O)CCN3Cc2ccc(C(=O)NO)cc2)cc1` (centres unmarked) [Compound 47, 4-{6-[(4-ethylphenyl)isobutylsulfamoyl]-4-hydroxy-3,4-dihydro-2H-quinolin-1-ylmethyl}-N-hydroxybenzamide]: above 1 µM.
For the compound `CCc1ccc(N(CC(C)C)S(=O)(=O)c2ccc3c(c2)C(O)CCN3[C@H]2CC[C@H](C(=O)OC)CC2)cc1` (stereo partly drawn) [Compound 48, methyl (1R,4R)-4-(6-(N-(4-ethylphenyl)-N-isobutylsulfamoyl)-4-hydroxy-3,4-dihydroquinolin-1(2H)-yl)cyclohexane-1-carboxylate], the IC50 was above 1 µM.
The same measure for `CCc1ccc(N(CC(C)C)S(=O)(=O)c2ccc3c(c2)C(O)CCN3[C@H]2CC[C@@H](C(=O)OC)CC2)cc1` (stereo partly drawn) [Compound 49, methyl (1S,4S)-4-(6-(N-(4-ethylphenyl)-N-isobutylsulfamoyl)-4-hydroxy-3,4-dihydroquinolin-1(2H)-yl)cyclohexane-1-carboxylate]: above 1 µM.
With `CCc1ccc(N(CC(C)C)S(=O)(=O)c2ccc3c(c2)C(O)CCN3CC2CCN(C(=O)OC)C2)cc1` (centres unmarked) [Compound 50, methyl ester of 3-{6-[(4-ethylphenyl)isobutylsulfamoyl]-4-hydroxy-3,4-dihydro-2H-quinolin-1-ylmethyl}pyrrolidine-1-carboxylic acid], the IC50 is above 1 µM.
In turn, `CCc1ccc(N(CC(C)C)S(=O)(=O)c2ccc3c(c2)C(O)CCN3CC2CCN(C(=O)OC)CC2)cc1` (centres unmarked) [Compound 51, methyl ester of 4-{6-[(4-ethylphenyl)isobutylsulfamoyl]-4-hydroxy-3,4-dihydro-2H-quinolin-1-ylmethyl}piperidine-1-carboxylic acid] had an IC50 above 1 µM.
Compound `CCc1ccc(N(CC(C)C)S(=O)(=O)c2ccc3c(c2)C(=O)CCN3CC2CCNCC2)cc1` [Compound 54, 4-oxo-1-piperidin-4-ylmethyl-1,2,3,4-tetrahydroquinoline-6-sulfonic acid (4-ethylphenyl)isobutylamide] yielded an IC50 above 1 µM.
For `CCc1ccc(N(CC(C)C)S(=O)(=O)c2ccc3c(c2)C(=O)CCN3C2CCNCC2)cc1` [Compound 55, 4-oxo-1-piperidin-4-yl-1,2,3,4-tetrahydroquinoline-6-sulfonic acid (4-ethylphenyl)isobutylamide], the IC50 was above 1 µM.
With `CCc1ccc(N(CC(C)C)S(=O)(=O)c2ccc3c(c2)C(O)CCN3CC2CCNCC2)cc1` (centres unmarked) [Compound 56, 4-hydroxy-1-piperidin-4-ylmethyl-1,2,3,4-tetrahydroquinoline-6-sulfonic acid (4-ethylphenyl)isobutylamide], the IC50 was above 1 µM.
In turn, `CCc1ccc(N(CC(C)C)S(=O)(=O)c2ccc3c(c2)C(O)CCN3C2CCNCC2)cc1` (centres unmarked) [Compound 57, 4-hydroxy-1-piperidin-4-yl-1,2,3,4-tetrahydroquinoline-6-sulfonic acid (4-ethylphenyl)isobutylamide] registered an IC50 above 1 µM.
As for `CCc1ccc(N(CC(C)C)S(=O)(=O)c2ccc3c(c2)C(O)CCN3CC2CCN(C(C)=O)CC2)cc1` (centres unmarked) [Compound 58, 1-(1-acetylpiperidin-4-ylmethyl)-4-hydroxy-1,2,3,4-tetrahydroquinoline-6-sulfonic acid (4-ethylphenyl)isobutylamide], the IC50 is above 1 µM.
As to `CCc1ccc(N(CC(C)C)S(=O)(=O)c2ccc3c(c2)C(O)CCN3CC2CCN(S(C)(=O)=O)CC2)cc1` (centres unmarked) [Compound 59, 4-hydroxy-1-(1-methanesulfonylpiperidin-4-ylmethyl)-1,2,3,4-tetrahydroquinoline-6-sulfonic acid (4-ethylphenyl)isobutylamide], the IC50 is above 1 µM.
`CCc1ccc(N(CC(C)C)S(=O)(=O)c2ccc3c(c2)C(=O)CCN3C2CCN(C(C)=O)CC2)cc1` [Compound 60, 1-(1-acetylpiperidin-4-yl)-4-oxo-1,2,3,4-tetrahydroquinoline-6-sulfonic acid (4-ethylphenyl)isobutylamide]: the IC50 was above 1 µM.
The same measure for `CCc1ccc(N(CC(C)C)S(=O)(=O)c2ccc3c(c2)C(O)CCN3C2CCN(C(C)=O)CC2)cc1` (centres unmarked) [Compound 61, 1-(1-acetylpiperidin-4-yl)-4-hydroxy-1,2,3,4-tetrahydroquinoline-6-sulfonic acid (4-ethylphenyl)isobutylamide]: above 1 µM; for `CCc1ccc(N(CC(C)C)S(=O)(=O)c2ccc3c(c2)C(=O)CCN3C2CCN(S(C)(=O)=O)CC2)cc1` [Compound 63, 1-(1-methanesulfonylpiperidin-4-yl)-4-oxo-1,2,3,4-tetrahydroquinoline-6-sulfonic acid (4-ethylphenyl)isobutylamide]: above 1 µM.
